# Assay results as given in US4176180A (priority 1977, dated 1979).
# Counter-ions that a name gives are not always drawn.
# Assays:
# [1] = in some patients, after prolonged treatment; cited from earlier work
# [2] = serum concentration of erythromycin two hours after ethyl-succinyl erythromycin; format: in vivo, human (ill persons)
# Plectridium tetani = settings: gram positive bacilli; cited from earlier work
# Bacteroides fragilis = settings: gram negative bacilli; cited from earlier work
# Clostridium perfringens = settings: gram positive bacilli; cited from earlier work
# Bordetella pertussis = settings: gram negative bacilli; cited from earlier work
# Staph. epidermidis = settings: gram positive cocci; cited from earlier work
# Str. pyogenes = settings: gram positive cocci; cited from earlier work
# Str. faecalis = settings: gram positive cocci; cited from earlier work
# Neisseria gonorrhoeae = settings: gram negative cocci; cited from earlier work
# Brucella melitensis = settings: gram negative bacilli; cited from earlier work
# Staph. aureus = settings: gram positive cocci; cited from earlier work
# Listeria monocytogenes = settings: gram positive bacilli; cited from earlier work
# Diplococcus pneumoniae = settings: gram positive cocci; cited from earlier work
# Mycoplasma pneumoniae = settings: mycoplasmae; cited from earlier work
# Pasteurella multocida = settings: gram negative bacilli; cited from earlier work
# Erysipelothrix insidiosa = settings: gram positive bacilli; cited from earlier work
# [3] = human, in vivo, 2 h
# Neisseria menigitidis = settings: gram negative cocci; cited from earlier work
# [4] = tested on: Corynebacterium diphteriae; settings: gram positive bacilli; cited from earlier work
# Str. non-groupable = settings: gram positive cocci; cited from earlier work
# clinical = settings: human, in vivo
# Haemophilus influenzae = settings: gram negative bacilli; cited from earlier work
# [5] = Serum concentration of erythromycine, Average
structure (smiles),measurement,setting,value
"CCC(=O)O[C@H]1[C@H](O[C@@H]2[C@@H](C)[C@H](O[C@H]3C[C@@](C)(OC)[C@@H](O)[C@H](C)O3)[C@@H](C)C(=O)O[C@H](CC)[C@@](C)(O)[C@H](O)[C@@H](C)C(=O)[C@H](C)C[C@@]2(C)O)O[C@H](C)C[C@@H]1N(C)C [estolate, lauryl sulfate of the propionic ester of erythromycin]",hepatotoxicity,[1],not inconsiderable hepatotoxicity
"CCOC(=O)CCC(=O)O[C@H]1[C@H](O[C@@H]2[C@@H](C)[C@H](O[C@H]3C[C@@](C)(OC)[C@@H](O)[C@H](C)O3)[C@@H](C)C(=O)O[C@H](CC)[C@@](C)(O)[C@H](O)[C@@H](C)C(=O)[C@H](C)C[C@@]2(C)O)O[C@H](C)C[C@@H]1N(C)C [ES, ethyl-succinyl erythromycin]",regularity of the serum concentrations obtained,[2]; two hours following administration,irregularity in the serum concentrations obtained
same,"Serum concentration of erythromycin, Total","[2]; two hours following administration of 600 mg, sum over 9 persons",15360 ng/mL
"CC[C@H]1OC(=O)[C@H](C)[C@@H](O[C@H]2C[C@@](C)(OC)[C@@H](O)[C@H](C)O2)[C@H](C)[C@@H](O[C@@H]2O[C@H](C)C[C@H](N(C)C)[C@H]2O)[C@](C)(O)C[C@@H](C)C(=O)[C@H](C)[C@@H](O)[C@]1(C)O [E, erythromycin]",MINIMUM INHIBITING CONCENTRATIONS,Plectridium tetani,0.2-0.6 […] MILILITER OF MEDIUM
same,MINIMUM INHIBITING CONCENTRATIONS,Bacteroides fragilis,0.8-6.2 […] MILILITER OF MEDIUM
same,MINIMUM INHIBITING CONCENTRATIONS,Clostridium perfringens,0.1-0.2 […] MILILITER OF MEDIUM
same,MINIMUM INHIBITING CONCENTRATIONS,Bordetella pertussis,0.2 […] MILILITER OF MEDIUM
same,MINIMUM INHIBITING CONCENTRATIONS,Staph. epidermidis,0.2-3.1 […] MILILITER OF MEDIUM
same,MINIMUM INHIBITING CONCENTRATIONS,Str. pyogenes,0.02-0.2 […] MILILITER OF MEDIUM
same,MINIMUM INHIBITING CONCENTRATIONS,Str. faecalis,0.6-3.1 […] MILILITER OF MEDIUM
same,MINIMUM INHIBITING CONCENTRATIONS,Neisseria gonorrhoeae,0.04-0.4 […] MILILITER OF MEDIUM
same,MINIMUM INHIBITING CONCENTRATIONS,Brucella melitensis,0.3 […] MILILITER OF MEDIUM
same,MINIMUM INHIBITING CONCENTRATIONS,Staph. aureus,0.01-1.6 […] MILILITER OF MEDIUM
same,MINIMUM INHIBITING CONCENTRATIONS,Listeria monocytogenes,0.2 […] MILILITER OF MEDIUM
same,MINIMUM INHIBITING CONCENTRATIONS,Diplococcus pneumoniae,0.01-0.2 […] MILILITER OF MEDIUM
same,MINIMUM INHIBITING CONCENTRATIONS,Mycoplasma pneumoniae,0.004-0.016 […] MILILITER OF MEDIUM
same,MINIMUM INHIBITING CONCENTRATIONS,Pasteurella multocida,0.8 […] MILILITER OF MEDIUM
same,MINIMUM INHIBITING CONCENTRATIONS,Erysipelothrix insidiosa,0.06 […] MILILITER OF MEDIUM
same,"Serum concentration of erythromycine, Average",[3],988 ng/mL
same,MINIMUM INHIBITING CONCENTRATIONS,Neisseria menigitidis,0.2-1.6 […] MILILITER OF MEDIUM
same,MINIMUM INHIBITING CONCENTRATIONS,[4],0.2-3.1 […] MILILITER OF MEDIUM
same,MINIMUM INHIBITING CONCENTRATIONS,Str. non-groupable,0.02-3.1 […] MILILITER OF MEDIUM
same,Cmax,"clinical; Maximum concentrations of erythromycin, Average m",996 ng/mL
same,concentration at 1 h,clinical; [5],321 ng/mL
same,concentration at 1.5 h,clinical; [5],610 ng/mL
same,concentration at 2 h,clinical; [5],988 ng/mL
same,MINIMUM INHIBITING CONCENTRATIONS,Haemophilus influenzae,0.4-3.1 […] MILILITER OF MEDIUM
